Data as given in patent US20240294548A1, “TRICYCLIC SULTAMS AND SULFAMIDES AS ANTITUMOR AGENTS” (PELOTON THERAPEUTICS INC., priority 2021, published 2024).
Where two headings read alike, the source gives them in different places.

How the values were obtained:
[1] = system: HCT116 human colorectal carcinoma cells; assay: CellTiter-Glo assay (cell viability); format: cell-based; conditions: HCT-116, 72 h, read-out: CTG IC50
Procedure: HCT116 human colorectal carcinoma cells were used in these experiments. HCT116 cells were obtained from ATCC. CellTiter-Glo® Luminescent Cell Viability Assay Reagent was obtained from Promega.
About 3,000 cells were seeded into 96-well plate with 100 μL of media (DMEM supplemented with 10% FBS, 100 units penicillin, and […] streptomycin per mL) the day before the experiment. For compound treatment, the master plate was prepared as follows: 100× compound stocks were prepared in a 96-well plate by 1 to 3 serial dilutions of 0.5 mM DMSO stocks. Each master plate contained serial dilution of 8 compounds, including the control compound E7820. […] of 100× compound stock was added to each well of the assay plate to give final concentrations of […]. Each concentration was tested in triplicate. After 3 days, cell viability was determined using CellTiter-Glo Luminescent Cell Viability Assay Reagent following the manufacturer's recommended protocol. Briefly, […] of CellTiter-Glo reagent was added to each well of the assay plate and the contents were mixed for 3 minutes at 600 rpm on a shaker (Thermomixer R). The plate was immediately placed in a plate reader (Synergy 2) and the luminescence signal (0.5 second per well integration time) was determined. IC50 values were calculated using Dotmatics software.

[2] = biological target: T1, DCAF15 (DDA1-DDB1ΔB-DCAF15Δpro) (Homo sapiens, UniProt Q66K64, DEL276-383); assay: DCAF15 displacement assay (displacement FRET, probe PT7795); format: binding
T1 construct: made in house; host or cells: Sf9 (Bac-to-Bac baculovirus)

[3] = biological target: T2, DCAF15 RBM39 ternary complex (Homo sapiens, UniProt Q14498+Q66K64, DEL276-383); assay: DCAF15 RBM39 complex formation assay (FRET); format: biochemical
T2 construct: Amino acids 150 to 331 of RBM39 were cloned into pGEX4T3; GST (from the pGEX4T3 vector, own knowledge) followed by a TEV cleavage site (N); made in house; host or cells: Sf9 baculovirus (DDB1ΔB/DCAF15); E. coli (RBM39 R1R2)
T2 sequence (Q66K64 with tags, fused parts or gaps DEL276-383): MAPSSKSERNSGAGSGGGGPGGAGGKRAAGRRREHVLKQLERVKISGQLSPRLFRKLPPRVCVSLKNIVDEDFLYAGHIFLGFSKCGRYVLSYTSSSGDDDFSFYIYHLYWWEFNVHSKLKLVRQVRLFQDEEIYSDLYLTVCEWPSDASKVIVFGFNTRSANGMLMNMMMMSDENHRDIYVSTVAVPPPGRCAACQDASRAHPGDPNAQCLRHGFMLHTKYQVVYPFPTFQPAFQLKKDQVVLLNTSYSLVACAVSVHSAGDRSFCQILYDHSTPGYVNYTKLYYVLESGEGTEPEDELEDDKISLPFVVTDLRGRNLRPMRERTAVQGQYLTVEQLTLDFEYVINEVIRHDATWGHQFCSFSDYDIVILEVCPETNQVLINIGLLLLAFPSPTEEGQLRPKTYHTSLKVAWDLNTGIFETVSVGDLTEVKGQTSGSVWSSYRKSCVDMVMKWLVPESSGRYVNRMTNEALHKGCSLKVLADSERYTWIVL
T2 sequence (Q14498 150-331, stated change not applied): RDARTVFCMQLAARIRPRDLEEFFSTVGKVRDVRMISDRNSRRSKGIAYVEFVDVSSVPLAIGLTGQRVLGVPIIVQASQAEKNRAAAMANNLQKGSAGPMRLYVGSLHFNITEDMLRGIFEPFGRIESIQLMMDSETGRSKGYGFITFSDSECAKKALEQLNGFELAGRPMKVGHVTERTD
How it was run: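 Mix of 20 nM DDB1DB/DCAF15, 50 nM RBM39 R1R2, 0.2 nM Eu-anti-6×His and 50 nM APC-anti-FLAG (25 mM HEPES pH 7.5, 100 mM NaCl). Compounds, 1 μM down in 3-fold steps over 14 points, kept overnight at 4 °C.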

[4] = HCT116 cells, 3 days, CellTiter-Glo luminescence
[5] = displacement of PT7795 (300 nM), compound 0.01 to 100 μM, 18 hours incubation, read-out: DCAF15 displacement IC50
[6] = FRET ratio, 20 nM DDB1DB/DCAF15, 50 nM RBM39 R1R2, overnight at 4° C., read-out: DCAF15 RBM39 ternary complex EC50

IC50 [1, 4] [nM] | IC50 [2, 5] [nM] | EC50 [3, 6] [nM] | SMILES | IC50 [1] [nM] | IC50 [2] [nM] | EC50 [3] [nM]
183 | 17500 | 10.6 | CN(C)CCN1Cc2cc(Cl)c3c(Cl)c[nH]c3c2NS1(=O)=O [Compound 41, 6,7-dichloro-3-(2-(dimethylamino)ethyl)-1,3,4,9-tetrahydro-[1,2,6] thiadiazino[4,3-g]indole 2,2-dioxide] | – | – | –
525 | 1000 | 4 | O=c1cccc(CN2Cc3cc(Cl)c4c(Cl)c[nH]c4c3NS2(=O)=O)[nH]1 [Compound 57, 6-((6,7-dichloro-2,2-dioxido-4,9-dihydro-[1,2,6]thiadiazino[4,3-g]indol-3(1H)-yl)methyl)pyridin-2(1H)-one] | – | – | –
150 | 223 | 1.2 | CS(=O)(=O)N1CCC(CN2Cc3cc(Cl)c4c(Cl)c[nH]c4c3NS2(=O)=O)CC1 [Compound 72, 6,7-dichloro-3-((1-(methylsulfonyl)piperidin-4-yl)methyl)-1,3,4,9-tetrahydro-[1,2,6]thiadiazino[4,3-g]indole 2,2-dioxide] | – | – | –
833 | 1950 | 3.3 | O=S1(=O)Nc2c(cc(Cl)c3c(Cl)c[nH]c23)CN1Cc1ccccc1F [Compound 70, 6,7-dichloro-3-(2-fluorobenzyl)-1,3,4,9-tetrahydro-[1,2,6] thiadiazino[4,3-g]indole 2,2-dioxide] | – | – | –
246 | 1050 | 2.7 | Cn1cc(CN2Cc3cc(Cl)c4c(Cl)c[nH]c4c3NS2(=O)=O)cn1 [Compound 43, 6,7-dichloro-3-((1-methyl-1H-pyrazol-4-yl)methyl)-1,3,4,9-tetrahydro-[1,2,6] thiadiazino[4,3-g]indole 2,2-dioxide] | – | – | –
218 | 2320 | 3.4 | O=S1(=O)Nc2c(cc(Cl)c3c(Cl)c[nH]c23)CN1Cc1ccccc1Cl [Compound 14, 6,7-dichloro-3-(2-chlorobenzyl)-1,3,4,9-tetrahydro-[1,2,6] thiadiazino[4,3-g] indole 2,2-dioxide] | – | – | –
262 | 458 | 1.3 | Cn1ncnc1CN1Cc2cc(Cl)c3c(Cl)c[nH]c3c2NS1(=O)=O [Compound 38, 6,7-dichloro-3-((1-methyl-1H-1,2,4-triazol-5-yl)methyl)-1,3,4,9-tetrahydro-[1,2,6] thiadiazino[4,3-g]indole 2,2-dioxide] | – | – | –
237 | 531 | 1.6 | O=S1(=O)Nc2c(cc(Cl)c3c(Cl)c[nH]c23)CN1Cc1ccccn1 [Compound 19, 6,7-dichloro-3-(pyridin-2-ylmethyl)-1,3,4,9-tetrahydro-[1,2,6]thiadiazino [4,3-g]indole 2,2-dioxide] | – | – | –
236 | 963 | 2.1 | Cc1nnc(CN2Cc3cc(Cl)c4c(Cl)c[nH]c4c3NS2(=O)=O)o1 [Compound 36, 6,7-dichloro-3-((5-methyl-1,3,4-oxadiazol-2-yl)methyl)-1,3,4,9-tetrahydro-[1,2,6] thiadiazino[4,3-g]indole 2,2-dioxide] | – | – | –
418 | 2680 | 0.9 | O=S1(=O)Nc2c(cc(Cl)c3c(Cl)c[nH]c23)CN1CCCCF [Compound 18, 6,7-dichloro-3-(4-fluorobutyl)-1,3,4,9-tetrahydro-[1,2,6]thiadiazino[4,3-g]indole 2,2-dioxide] | – | – | –
259 | 1210 | 1 | O=S1(=O)Nc2c(cc(Cl)c3c(Cl)c[nH]c23)CC1Cc1ccccc1 (stereo not drawn) [Compound 16, 3-benzyl-6,7-dichloro-1,3,4,9-tetrahydro-[1,2] thiazino[4,3-g]indole 2,2-dioxide] | – | – | –
2230 | 51800 | 65.8 | COCCN1Cc2cc(Cl)c3cc[nH]c3c2NS1(=O)=O [Compound 2, 6-chloro-3-(2-methoxyethyl)-1,3,4,9-tetrahydro-[1,2,6] thiadiazino[4,3-g]indole 2,2-dioxide] | – | – | –
5000 | 4560 | 10 | COCCN1Cc2cc(Cl)c3c(Cl)n[nH]c3c2NS1(=O)=O [Compound 64, 6,7-dichloro-3-(2-methoxyethyl)-1,3,4,9-tetrahydro-[1,2,6]thiadiazino[4,3-g]indazole 2,2-dioxide] | – | – | –
501 | 28000 | 1.4 | CNCCN1Cc2cc(Cl)c3c(Cl)c[nH]c3c2NS1(=O)=O [Compound 28, 6,7-dichloro-3-(2-(methylamino)ethyl)-1,3,4,9-tetrahydro-[1,2,6] thiadiazino[4,3-g]indole 2,2-dioxide] | – | – | –
568 | 2000 | 2.5 | Cn1cnc(CN2Cc3cc(Cl)c4c(Cl)c[nH]c4c3NS2(=O)=O)n1 [Compound 37, 6,7-dichloro-3-((1-methyl-1H-1,2,4-triazol-3-yl)methyl)-1,3,4,9-tetrahydro-[1,2,6] thiadiazino[4,3-g]indole 2,2-dioxide] | – | – | –
591 | 9590 | 2.8 | CC(c1ccccc1)N1Cc2cc(Cl)c3c(Cl)c[nH]c3c2NS1(=O)=O (stereo not drawn) [Compound 23, 6,7-dichloro-3-(1-phenylethyl)-1,3,4,9-tetrahydro-[1,2,6] thiadiazino[4,3-g] indole 2,2-dioxide] | – | – | –
155 | 1070 | 0.7 | O=S1(=O)Nc2c(cc(Cl)c3c(Cl)c[nH]c23)CN1Cc1ccncc1 [Compound 20, 6,7-dichloro-3-(pyridin-4-ylmethyl)-1,3,4,9-tetrahydro-[1,2,6] thiadiazino[4,3-g] indole 2,2-dioxide] | – | – | –
162 | 530 | 2.3 | O=S1(=O)Nc2c(cc(Cl)c3c(Cl)c[nH]c23)CN1Cc1cncnc1 [Compound 33, 6,7-dichloro-3-(pyrimidin-5-ylmethyl)-1,3,4,9-tetrahydro-[1,2,6]thiadiazino[4,3-g] indole 2,2-dioxide] | – | – | –
283 | 4410 | 1.5 | N#Cc1cccc(CN2Cc3cc(Cl)c4c(Cl)c[nH]c4c3NS2(=O)=O)c1 [Compound 51, 3-((6,7-dichloro-2,2-dioxido-4,9-dihydro-[1,2,6]thiadiazino[4,3-g]indol-3(1H)-yl)methyl) benzonitrile] | – | – | –
415 | 560 | 1.5 | COc1ccc(CN2Cc3cc(Cl)c4c(Cl)c[nH]c4c3NS2(=O)=O)cn1 [Compound 21, 6,7-dichloro-3-((6-methoxypyridin-3-yl)methyl)-1,3,4,9-tetrahydro-[1,2,6]thiadiazino [4,3-g]indole 2,2-dioxide] | – | – | –
916 | 797 | 1.8 | O=c1ccc(CN2Cc3cc(Cl)c4c(Cl)c[nH]c4c3NS2(=O)=O)c[nH]1 [Compound 17, 5-((6,7-dichloro-2,2-dioxido-4,9-dihydro-[1,2,6]thiadiazino[4,3-g]indol-3(1H)-yl)methyl)pyridin-2(1H)-one] | – | – | –
475 | 3160 | 5.5 | COCCN1Cc2cc(Cl)c3c(Cl)c[nH]c3c2NS1(=O)=O [Compound 1, 6,7-dichloro-3-(2-methoxyethyl)-1,3,4,9-tetrahydro-[1,2,6] thiadiazino[4,3-g]indole 2,2-dioxide] | – | – | –
726 | 14400 | 7.7 | CN1Cc2cc(Cl)c3c(Cl)c[nH]c3c2NS1(=O)=O [Compound 15, 6,7-dichloro-3-methyl-1,3,4,9-tetrahydro-[1,2,6]thiadiazino [4,3-g]indole 2,2-dioxide] | – | – | –
810 | 36100 | 6.2 | O=S1(=O)Nc2c(cc(Cl)c3c(Cl)c[nH]c23)CN1Cc1ccc(Cl)cc1 [Compound 13, 6,7-dichloro-3-(4-chlorobenzyl)-1,3,4,9-tetrahydro-[1,2,6] thiadiazino[4,3-g]indole 2,2-dioxide] | – | – | –
– | – | – | O=S1(=O)Nc2c(cc(Cl)c3c(Cl)c[nH]c23)CN1CCN1CCOCC1 [Compound 71, 6,7-dichloro-3-(2-morpholinoethyl)-1,3,4,9-tetrahydro-[1,2,6] thiadiazino[4,3-g]indole 2,2-dioxide] | 353 | 952 | 2.1
